Consider one compound from ChEMBL document CHEMBL5579831, “Discovery of novel CXCR4 inhibitors for the treatment of inflammation by virtual screening and biological evaluation” (Eur J Med Chem, 2024).

Active and inactive are the calls of the source. No cut-off for these calls is given here.

Series [1] concerns the target T1, C-X-C chemokine receptor type 4 (Homo sapiens, UniProt P61073). Put plainly: Binding affinity to CXCR4 in human MDA-MB-231 cells assessed as increase in thermal stability at 50 to 55 degreeC at 100 nM incubated for 12 hrs by CETSA. It counts as cell-based.
The subject of series [2] is MDA-MB-231. Put plainly: Inhibition of CXCR4/CXCL12 interaction in human MDA-MB-231 cells assessed as reduction in cell invasion at 100 nM measured after 24 hrs by H and E staining based matrix gel invasion assay.
Series [3] is described as follows: Toxicity in ip dosed mouse assessed as median lethal dose by Bliss method. It counts as organism-based. Conditions: in vivo, read-out: LD.
In series [4] the test system is MDA-MB-231. Put plainly: Inhibition of cell migration in human MDA-MB-231 cells at 100 nM measured after 24 hrs by wound healing based inverted microscopic analysis. It counts as functional.
Series [5] concerns the target T1, C-X-C chemokine receptor type 4. Put plainly: Inhibition of fluorescently labeled 12G5 antibodies binding to CXCR4 in human MDA-MB-231 cells assessed as change in fluorescence intensity incubated for 3 hrs under dark condition by FACS assay. The class given is cell-based.
Series [6] relates to Mus musculus. Put plainly: Antiinflammatory activity in xylene-induced mouse ear swelling model assessed as reduction in inflammatory cell infiltration at 10 to 30 mg/kg, ip pretreated with xylene for 30 mins followed by compound addition and measured after 2 hrs by H and E staining based light microscopic analysis. The class given is functional, organism-based. Conditions: dose 10-30 mg/kg.

Series [7] relates to MDA-MB-231. Put plainly: Cytotoxicity against human MDA-MB-231 cells assessed as reduction in cell viability at 10 uM incubated for 24 hrs by MTT assay. The class given is toxicity, cell-based. The conditions noted are these: mda-mb-231, 24 h.
Series [8] deals with Mus musculus. Put plainly: Antiinflammatory activity in ip dosed xylene-induced mouse ear swelling model assessed as reduction in ear swelling pretreated with xylene for 30 mins followed by compound addition and measured after 2 hrs. It counts as functional, organism-based. The conditions noted are these: dose 10-30 mg/kg.
Series [9] relates to MDA-MB-231. Put plainly: Inhibition of CXCR4/CXCL12-mediated AKT phosphorylation in human MDA-MB-231 cells by Western blot analysis. It counts as cell-based. The conditions noted are these: dose 0.1-100 nM. On the technique in general: Immunoblotting shows a protein as a band on a membrane.

T1 sequence (P61073 whole entry): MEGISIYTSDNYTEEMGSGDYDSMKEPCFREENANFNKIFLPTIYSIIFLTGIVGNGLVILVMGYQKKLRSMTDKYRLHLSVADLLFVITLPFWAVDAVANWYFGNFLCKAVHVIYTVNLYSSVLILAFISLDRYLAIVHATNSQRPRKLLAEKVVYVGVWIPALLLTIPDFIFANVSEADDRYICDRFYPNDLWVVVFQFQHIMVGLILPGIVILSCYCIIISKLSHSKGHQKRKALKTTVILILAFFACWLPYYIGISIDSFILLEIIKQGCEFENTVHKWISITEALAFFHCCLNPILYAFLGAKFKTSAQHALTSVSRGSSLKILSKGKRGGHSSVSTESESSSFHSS

As a reminder, the IC50 is the concentration that inhibits the measured activity by half. For `O=S(=O)(NCC1CCCO1)c1ccc(Oc2ccc(S(=O)(=O)NCC3CCCO3)cc2)cc1` (centres undefined), the result (in series [1]; with Mus musculus [6]) was Active. The inhibition entry in the series on MDA-MB-231 [2] and in the series with MDA-MB-231 [4] was “Active” in each case. Further, the LD50 in series [3] was 72.6 mg/kg. Also, in series [5], the IC50 is 254 nM. Also, the Activity entry with MDA-MB-231 [7] was “Non-Toxic”; in the series with Mus musculus [8], “Dose-Dependent Effect”. The inhibition entry with MDA-MB-231 [9] is “Dose-Dependent Effect”.
